Results from patent US20080221193A1, “3-AMINO CHROMANE DERIVATIVES” (Wyeth, priority 2006, published 2008).

Key:
human 5-HT1A receptors [1] = target: T1, human 5-HT1A receptors (Homo sapiens, UniProt P08908); assay: 35S-GTPγS binding assay, membranes containing cloned human 5-HT1A receptors; type: biochemical; details: read-out: 5-HT1A Function GTPγS IC50
T1 construct: expressed in transfected cells; host or cells: CHO cells, stably transfected
T1 sequence (P08908 1-422): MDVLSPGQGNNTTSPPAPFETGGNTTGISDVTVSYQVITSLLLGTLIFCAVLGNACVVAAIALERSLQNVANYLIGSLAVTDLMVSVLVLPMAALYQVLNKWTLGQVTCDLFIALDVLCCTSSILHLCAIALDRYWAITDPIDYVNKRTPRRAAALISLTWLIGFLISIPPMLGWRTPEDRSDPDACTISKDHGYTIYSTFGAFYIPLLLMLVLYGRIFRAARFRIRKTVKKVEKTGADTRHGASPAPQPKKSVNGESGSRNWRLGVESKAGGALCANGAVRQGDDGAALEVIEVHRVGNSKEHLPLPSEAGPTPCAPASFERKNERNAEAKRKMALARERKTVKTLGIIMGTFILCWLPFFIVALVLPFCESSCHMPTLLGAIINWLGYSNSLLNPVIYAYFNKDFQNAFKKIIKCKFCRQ
Source text: (§1) The agonist or antagonist activity at 5-HT1A receptors was established by using two different assays. The ^35S-GTPγS binding assay similar to that used by Lazareno and Birdsall (Br. J. Pharmacol., 1993, 109: 1120) was used to determine the test compound's ability to affect the binding of ^35S-GTPγS to membranes containing cloned human 5-HT1A receptors. Agonists produce an increase in binding whereas antagonists produce no increase but rather reverse the effects of the standard agonist 8-OH-DPAT. The test compound's maximum stimulatory effect is represented as the Emax, while its potency is defined by the EC50. The test compound's maximum inhibitory effect is represented as the Imax, while its potency is defined by the IC50. The second assay measured cAMP accumulation upon binding of the ligand to the 5-HT1A receptor. Antagonists block the effect of the standard agonist 8-OH-DPAT resulting in an increase in cAMP accumulation while agonists have the reverse effect. The test compound's maximum stimulatory or inhibitory effect is represented as the Emax while its potency is defined by either IC50 for an antagonist or EC50 for an agonist. [^3H]-8-OH-DPAT was used to determine maximum agonist or antagonist response in both functional assays.

h5-HT Transporter = h5-HT Transporter (Homo sapiens, UniProt P31645); assay: h5-HT Transporter Function (Table 1); type: biochemical
Sequence of h5-HT Transporter (P31645 whole entry): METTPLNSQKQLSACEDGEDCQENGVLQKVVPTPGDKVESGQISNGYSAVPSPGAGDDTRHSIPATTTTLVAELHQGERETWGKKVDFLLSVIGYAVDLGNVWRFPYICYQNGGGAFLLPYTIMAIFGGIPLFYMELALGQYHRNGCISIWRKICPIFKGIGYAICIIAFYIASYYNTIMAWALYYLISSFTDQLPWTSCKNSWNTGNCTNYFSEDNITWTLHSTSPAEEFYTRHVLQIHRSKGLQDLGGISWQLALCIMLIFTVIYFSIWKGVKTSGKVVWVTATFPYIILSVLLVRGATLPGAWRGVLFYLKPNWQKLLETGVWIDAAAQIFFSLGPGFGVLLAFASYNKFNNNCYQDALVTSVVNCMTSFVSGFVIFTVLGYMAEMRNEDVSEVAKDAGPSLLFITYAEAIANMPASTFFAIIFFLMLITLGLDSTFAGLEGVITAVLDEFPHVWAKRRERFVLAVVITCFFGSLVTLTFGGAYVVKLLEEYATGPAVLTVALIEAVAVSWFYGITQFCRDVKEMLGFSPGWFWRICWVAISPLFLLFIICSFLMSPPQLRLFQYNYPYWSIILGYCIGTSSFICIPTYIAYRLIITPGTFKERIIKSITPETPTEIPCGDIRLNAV

h5HT1a receptor = target: T2, h5HT1a receptor (Homo sapiens, UniProt P08908); assay: cAMP RIA in CHO cells stably transfected with the h5HT1a receptor; type: cell-based; details: for EC50: agonist, forskolin-stimulated cAMP, read-out: 5-HT1A Function cAMP EC50; for IC50: antagonist, reversal of agonist 8-OH-DPAT, read-out: 5-HT1A Function cAMP IC50
T2 construct: expressed in transfected cells; host or cells: CHO cells, stably transfected
T2 sequence (P08908 1-422): T1 sequence (P08908 1-422)
Source text: as §1
Stabily transfected CHO cells were grown in DMEM containing 10% heat inactivated FBS and non-essential amino acids. The cells were plated at a density of 10(6) cells per well in a 24 well plate and incubated for 2 days in a CO2 incubator. On the second day, the media was replaced with 0.5 ml treatment buffer (DMEM+25 mM HEPES, 5 mM theophylline, 10 uM pargyline) and incubated 10 minutes at 37° C.
Wells were treated with forskolin (1 μM final conc) followed immediately by test compound (0.1 and 1 uM for initial screen) and incubated for an additional 10 min at 37° C. The reaction was terminated by removal of the media and addition of 0.5 ml ice cold assay buffer (supplied in RIA kit). Plates were stored at −20° C. prior to assessment of cAMP formation by RIA.
Compounds shown to have no agonist activities were further analyzed for ability to reverse agonist activity. In separate experiments, 6 concentrations of antagonist were preincubated for 20 minutes prior to the addition of agonist and forskolin. Cells were harvested as described. The cAMP kit was supplied by Amersham and the RIA was performed as per kit instructions.

human 5-HT1A receptors [2] = target: T1, human 5-HT1A receptors; assay: 8-OH-DPAT binding in CHO cells stably transfected with human 5HT1a receptor; details: displacement of [3H]8-OH-DPAT, CHO cells with human 5-HT1A; read-out: 5-HT1A Receptor Affinity Ki
Experimental: High affinity for the serotonin 5-HT1A receptor was established by testing the claimed compound's ability to displace [^3H] 8-OH-DPAT (dipropylaminotetralin) from the 5-HT1A serotonin receptor following a modification of the procedure of Hall et al., (J. Neurochem., 1985, 44: 1685) which utilizes CHO cells stably transfected with human 5-HT1A receptors.
Stabily transfected CHO cells were grown in DMEM containing 10% heat inactivated FBS and non-essential amino acids. Cells were scraped off the plate, transferred to centrifuge tubes, and washed twice by centrifugation (2000 rpm for 10 min., 4° C.) in buffer (50 mM Tris pH 7.5). The resulting pellets were aliquoted and placed at −80° C. On day of assay, the cells were thawed on ice, and resuspended in buffer. The binding assay was performed in a 96 well microtiter plate in a total volume of […].
Non-specific binding was determined in the presence of […] 5HT, final ligand concentration is 1.5 nM. Following a 30 minute incubation at room temperature, the reaction was terminated by the addition of ice cold buffer and rapid filtration through a GF/B filter presoaked for 30 minutes in 0.5% PEI. Compounds were initially tested in a single point assay to determine percent inhibition at […]. Subsequently, Ki values were determined for compounds defined to be active.

SMILES | IC50 (human 5-HT1A receptors [1]) [nM] | IC50 (h5-HT Transporter) [nM] | EC50 (h5HT1a receptor) [nM] | Ki (human 5-HT1A receptors [2]) [nM] | IC50 (h5HT1a receptor) [nM]
CCc1ccc(C(N)=O)c2c1OC[C@H](N(CCCc1c[nH]c3ccc(F)cc13)C1CCC1)C2 [Example 21, (3R)-3-{cyclobutyl[3-(5-fluoro-1H-indol-3-yl)propyl]amino}-8-ethylchromane-5-carboxamide] | 724 | 90.4 | 15.6 | 5.93 | 
CSc1ccc(C(N)=O)c2c1OC[C@H](N(CCCc1c[nH]c3ccc(F)cc13)C1CCC1)C2 [Example 22, (3R)-3-{cyclobutyl[3-(5-fluoro-1H-indol-3-yl)propyl]amino}-8-(methylthio)chromane-5-carboxamide] | 1180 | 364 |  | 16.9 | 59.8

More lines, now with the values ahead:

IC50 (human 5-HT1A receptors [1]) [nM] | IC50 (h5-HT Transporter) [nM] | EC50 (h5HT1a receptor) [nM] | Ki (human 5-HT1A receptors [2]) [nM] | IC50 (h5HT1a receptor) [nM] | SMILES
738 | 55 | 323 | 570 |  | CNC(=O)c1ccc(OC)c2c1C[C@@H](N(CCCc1c[nH]c3ccc(F)cc13)C1CCC1)CO2 [Example 16, (3R)-3-{cyclobutyl[3-(5-fluoro-1H-indol-3-yl)propyl]amino}-8-methoxychromane-5-methylcarboxamide]
311 | 52.2 | 51.8 | 4.26 |  | Cc1ccc(C(N)=O)c2c1OC[C@H](N(CCCc1c[nH]c3ccc(F)cc13)C1CCC1)C2 [Example 20, (3R)-3-{cyclobutyl[3-(5-fluoro-1H-indol-3-yl)propyl]amino}-8-methylchromane-5-carboxamide]
3550 | 137 |  | 51.5 | 140 | CNc1ccc(C(N)=O)c2c1OC[C@H](N(CCCc1c[nH]c3ccc(F)cc13)C1CCC1)C2 [Example 25, (3R)-3-{cyclobutyl[3-(5-fluoro-1H-indol-3-yl)propyl]amino}-8-(methylamino)-chromane-5-carboxamide]
